The values below come from patent US6759384B1, “Factor Xa inhibitors” (Aventis Pharmaceuticals Inc., priority 1994, dated 2004).

In general, Ki refers to the dissociation constant of the complex between target and ligand, obtained from inhibition or displacement. As a reminder, the EC50 is the concentration needed to bring the measured effect to its halfway point. Low readings indicate higher potency in that assay, high ones lower potency in that assay.

Structures can show the parent of a compound that is named as a salt. Where two headings read alike, the source gives them in different places. Starred links: 1 amine or outer side, 2 acyl side, 3 side chain; linkers in the order of their positions; H or OH if unused. Non-standard residues stand in square brackets, D forms with d. Residues, ends and D or L forms follow the SMILES beside them. No end group written: not given here. *: point of attachment. X1 = CC(C)CN([C@@H](Cc1ccc(O)cc1)C(=O)[*:2])[*:1]; 2Nal = N[C@@H](Cc1ccc2ccccc2c1)C(=O)O; Chg = N[C@H](C(=O)O)C1CCCCC1; Tfa = O=C(C(F)(F)F)*

Series [1] has as its target T1, bovine pancreatic trypsin (Bos taurus, UniProt P00760).
T1 construct: purchased Sigma Type XIII, TPCK treated; host or cells: bovine pancreas
T1 sequence (P00760 24-246): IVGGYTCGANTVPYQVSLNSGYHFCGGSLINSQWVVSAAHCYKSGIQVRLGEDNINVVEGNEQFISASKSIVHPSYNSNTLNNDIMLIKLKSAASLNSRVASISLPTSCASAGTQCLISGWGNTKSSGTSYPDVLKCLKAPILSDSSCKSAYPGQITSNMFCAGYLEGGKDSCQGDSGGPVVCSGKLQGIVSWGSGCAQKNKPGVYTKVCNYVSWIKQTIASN
The experiment in a line: Trypsin chromogenic assay. The series is classed as biochemical. Conditions: Table 2; * no significant inhibition at the highest concentration tested. The method, then: (§1) The ability of a compound of the invention to inhibit factor Xa, thrombin, plasmin, elastase and trypsin was assessed by determining the concentration of YIR peptide that inhibits enzyme activity by 50% (IC50). Purified enzymes were used in chromogenic assays. To determine the inhibition constant, the IC50 value was corrected for competition with substrate using the formula:
(§2) Ki=IC50×(1/{1+((substrate concentration)/substrate Km)})
TBS-P buffer containing 10 mM CaCl2 was used for this assay. The IC50 determination was determined as described in Example XXXVII.a., except that the substrate was BAPNA (Benzoyl-L-Arg-p-nitroanilide; Sigma Chemical Co.; St. Louis Mo.) and the enzyme was bovine pancreatic trypsin (Type XIII, TPCK treated; Sigma). The enzyme concentration was 50 nM and the substrate concentration was 300 μM.

The target in the next series is T2, human factor Xa (Homo sapiens, UniProt P00742).
T2 construct: purchased Enzyme Research Laboratories, Inc; South Bend Ind
The experiment in a line: Factor Xa chromogenic assay. It counts as biochemical. The method, then: as §1, §2
(Chen and Prusoff, Biochem. Pharmacol. 22:3099-[…] (1973), which is incorporated herein by reference).
TBS-P buffer (50 mM Tris-Cl, pH 7.8, 200 mM NaCl, 0.05% (w/v) PEG-8000, 0.02% (w/v) NaN3) was used for this assay. The IC50 was determined by combining in appropriate wells of a Costar half-area microtiter plate 25 μl human factor Xa (Enzyme Research Laboratories, Inc.; South Bend Ind.) in TBS-P; 40 μl 10% (v/v) DMSO in TBS-P (uninhibited control) or various concentrations of a peptide to be tested diluted in 10% (v/v) DMSO in TBS-P; and substrate S-2765 (Nα-benzyloxycarbonyl-D-Arg-Gly-L-Arg-p-nitroanilide; Kabi Pharmacia, Inc.; Franklin Ohio) in TBS-P.
The assays were performed by pre-incubating the peptide inhibitor plus enzyme for 10 min, then the assay was initiated by adding substrate to obtain a final volume of 100 μl. The initial velocity of chromogenic substrate hydrolysis was measured by the change in absorbance at 405 nm using a Bio-tek Instruments kinetic plate reader (Ceres UV900HDi) at 25° C. during the linear portion of the time course (usually 1-5 min after addition of substrate). The concentration of inhibitor that caused a 50% decrease in the rate of substrate hydrolysis was predicted by linear regression after plotting the relative rates of hydrolysis (compared to the uninhibited control) versus the log of the peptide concentration. The enzyme concentration was 0.5 nM and substrate concentration was 140 μM.

The next series deals with factor Xa. The conditions noted are these: background section; cited from earlier work.
A further series deals with T3, human plasmin (Homo sapiens, UniProt P00747).
T3 construct: the enzyme was human plasmin (Kabi); purchased Kabi
The experiment in a line: Plasmin chromogenic assay. The series is classed as biochemical. Conditions: Table 2. The method, then: as §1, §2
TBS-P buffer was used for this assay. The IC50 was determined as described in Example XXXVII.a., except that the substrate was S-2251 ((D)-Val-L-Leu-L-Lys-p-nitroanilide; Kabi) and the enzyme was human plasmin (Kabi). The enzyme concentration was 5 nM and the substrate concentration was 300 uM.

For series [2], the target named is T4, human neutrophil elastase (Homo sapiens, UniProt P08246).
T4 construct: purchased Athens Research and Technology, Inc; Athens Ga
T4 sequence (P08246 30-247 limits assumed): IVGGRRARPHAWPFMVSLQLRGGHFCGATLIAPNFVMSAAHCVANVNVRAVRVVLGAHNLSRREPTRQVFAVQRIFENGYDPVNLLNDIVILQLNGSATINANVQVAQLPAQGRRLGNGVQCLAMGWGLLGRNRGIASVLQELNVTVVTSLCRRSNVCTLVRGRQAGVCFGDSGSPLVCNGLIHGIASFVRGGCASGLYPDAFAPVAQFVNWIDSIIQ
Put plainly: Elastase chromogenic assay. Conditions: Table 2. It counts as biochemical. The method, then:
as §1, §2
Tris-Cl, pH 7.4, 300 mM NaCl, 2% (v/v) N-methyl-pyrrolidone, 0.01% (w/v) NaN3 buffer was used for this assay. The IC50 was determined as described in Example XXXVII.a., except that the substrate was succinyl-Ala-Ala-Ala-p-nitroanilide (Calbiochem-Nova Biochem Corp.; San Diego Calif.) and the enzyme was human neutrophil elastase (Athens Research and Technology, Inc.; Athens Ga.). The enzyme concentration was 75 nM and the substrate concentration was 600 μM.

A short description of series [3]: Ex vivo dilute prothrombin time assay after iv administration to rats. The conditions noted are these: rat, in vivo, time at which approximately 50% of the initial anticoagulant activity remains in plasma, read-out: T1/2 Rat ex vivo. Here is the method: (§3) The compounds of the invention were assessed for their ability to inhibit factor Xa activity. Effectiveness of various compounds was assessed by the in vitro prothrombin time (PT) assay using pooled human donor plasma. An ex vivo assay also was used in which plasma was collected at various times after intravenous (iv) administration of a compound to rats and to rabbits or intraduodenal administration to rats and analyzed using the PT assay to determine plasma half-life. The PT assay was initiated with a thromboplastin dilution selected to obtain an extended and highly reproducible coagulation endpoint, referred to as the “dilute PT assay” as described below. Effectiveness of various compounds also was determined using an in vivo rat arteriovenous shunt model of thrombosis.
(§4) Test compound was administered iv either through the tail vein (rat) or ear vein (rabbit) following an approved protocol. One ml blood samples were removed at timed intervals after administration of a test compound from a cannulated carotid artery (rat) or auricular artery (rabbit). After centrifugation to obtain PPP, the plasma was immediately stored on ice or frozen.
(§5) For dilute prothrombin time determination, the plasma was prewarmed and assayed as described above. Percent inhibition was calculated from a thromboplastin dilution curve, which was run with each series of samples, and used to determine the time at which approximately 50% of the initial anticoagulant activity remains in the plasma (T1/2).
Various compounds also were examined for anticoagulant activity using the ex vivo dilute prothrombin time assay following iv bolus administration of various doses in rats. […] The structures of all of the compounds listed in Table 5 were confirmed by MS and AA.

The nature of series [4]: Ex vivo dilute prothrombin time assay after iv administration to rabbits. The conditions noted are these: rabbit, in vivo, time at which approximately 50% of the initial anticoagulant activity remains in plasma, read-out: T1/2 Rabbit ex vivo. The method, then: as §3, §4, §5
In series [5] the test system is pooled human platelet poor plasma. The experiment in a line: In vitro dilute prothrombin time assay. It counts as biochemical. Conditions: concentration giving 50% inhibition of coagulation, dilute PT. The method, then: The compounds of the invention were assessed for their ability to inhibit factor Xa activity. Effectiveness of various compounds was assessed by the in vitro prothrombin time (PT) assay using pooled human donor plasma. An ex vivo assay also was used in which plasma was collected at various times after intravenous (iv) administration of a compound to rats and to rabbits or intraduodenal administration to rats and analyzed using the PT assay to determine plasma half-life. The PT assay was initiated with a thromboplastin dilution selected to obtain an extended and highly reproducible coagulation endpoint, referred to as the “dilute PT assay” as described below. Effectiveness of various compounds also was determined using an in vivo rat arteriovenous shunt model of thrombosis. […]
Alternatively, the dilute prothrombin time assay was conducted using the “research” mode on an Instrumentation Laboratories (IL) ACL3000-plus automated coagulation instrument (IL; Milan, Italy). […] During the assay, a 50 μl sample (plasma separated by centrifugation) was mixed with 100 μl thromboplastin reagent and nephelometric readings were taken over 169 sec. Coagulation time was determined from the maximal rate of change of light scatter calculated by the instrument. Inhibition is expressed as percent activity as determined by comparison with the calibration curve.

The target of a further series is T5, human thrombin (Homo sapiens, UniProt P00734).
T5 construct: purchased Enzyme Research Laboratories, Inc; South Bend Ind
The experiment in a line: Thrombin chromogenic assay. It counts as biochemical. Conditions: Table 2. Here is the method:
as §1, §2
TBS-P buffer was used for this assay. The IC50 was determined as described in Example XXXVII.a., except that the substrate was S-2366 (L-PyroGlu-L-Pro-L-Arg-p-nitroanilide; Kabi) and the enzyme was human thrombin (Enzyme Research Laboratories, Inc.; South Bend Ind.). The enzyme concentration was 1 nM and substrate concentration was 175 μM.

T2 sequence (P00742 235-488 limits assumed): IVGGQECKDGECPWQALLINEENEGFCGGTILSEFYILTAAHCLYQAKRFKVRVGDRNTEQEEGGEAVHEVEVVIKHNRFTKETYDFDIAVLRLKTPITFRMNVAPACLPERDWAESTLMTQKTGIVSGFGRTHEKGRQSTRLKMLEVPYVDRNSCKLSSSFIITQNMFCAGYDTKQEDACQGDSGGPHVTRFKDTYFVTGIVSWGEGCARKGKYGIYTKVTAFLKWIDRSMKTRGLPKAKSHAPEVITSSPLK
T2 sequence (P00742 41-179 partner limits assumed): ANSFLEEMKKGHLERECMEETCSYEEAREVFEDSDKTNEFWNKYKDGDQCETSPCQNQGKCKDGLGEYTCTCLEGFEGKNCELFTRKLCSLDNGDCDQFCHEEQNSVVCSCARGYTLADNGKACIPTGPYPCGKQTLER
T3 sequence (P00747 581-810 limits assumed): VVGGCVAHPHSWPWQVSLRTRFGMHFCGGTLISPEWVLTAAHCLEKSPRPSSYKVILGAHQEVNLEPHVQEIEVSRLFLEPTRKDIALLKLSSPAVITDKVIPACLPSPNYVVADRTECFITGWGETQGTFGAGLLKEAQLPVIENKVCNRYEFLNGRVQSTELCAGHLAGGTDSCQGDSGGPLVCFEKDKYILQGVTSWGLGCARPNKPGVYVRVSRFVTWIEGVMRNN
T3 sequence (P00747 97-580 partner limits assumed): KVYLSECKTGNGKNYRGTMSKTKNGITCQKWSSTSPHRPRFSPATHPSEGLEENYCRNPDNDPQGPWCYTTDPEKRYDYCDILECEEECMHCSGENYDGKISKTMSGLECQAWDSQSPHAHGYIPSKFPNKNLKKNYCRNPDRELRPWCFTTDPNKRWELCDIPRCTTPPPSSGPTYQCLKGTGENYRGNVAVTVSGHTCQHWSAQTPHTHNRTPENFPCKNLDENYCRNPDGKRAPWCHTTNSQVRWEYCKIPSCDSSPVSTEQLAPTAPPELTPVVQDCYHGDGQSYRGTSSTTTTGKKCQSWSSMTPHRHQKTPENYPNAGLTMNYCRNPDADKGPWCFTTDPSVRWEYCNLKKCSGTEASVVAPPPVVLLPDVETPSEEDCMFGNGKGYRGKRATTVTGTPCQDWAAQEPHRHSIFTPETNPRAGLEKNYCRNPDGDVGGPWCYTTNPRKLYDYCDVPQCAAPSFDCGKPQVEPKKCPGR

In the case of “YIRLAAET [Ac-Y-I-R-L-A-A-E-T, Ac-Y-I-R-L-A-A-E-T (SEQ ID NO:9)]”, the Ki in [1] was above 200000 nM; at human factor Xa (Table 2, read-out: Ki Xa) it was 1500 nM.
Consider `N=C(N)c1ccc(C=C2CCCCC(=Cc3ccc(C(=N)N)cc3)C2=O)cc1` [2,7-bis-(4-amidinobenzylidene)-cycloheptanone, reference compound], for which the Ki at factor Xa was around 20 nM.
Consider `CC[C@H](C)[C@H](NC(=O)[C@H](Cc1ccc(O)cc1)N(CC(C)C)C(C)=O)C(=O)N[C@@H](CCCNC(=N)N)C(=O)N[C@@H](CC(C)C)C(=O)N1CCC[C@H]1C(N)=O` [Ac-(iBu)Y-I-R-L-P, Ac-(iBu)Tyr-Ile-Arg-Leu-Pro-NH2] (Ac-[X1]IRLP-NH2), for which the Ki on human plasmin is above 200000 nM; in [2] it was above 100000 nM; at human factor Xa (Example XXXVI, read-out: Ki (inhibition of factor Xa activity)), 40 nM.
As to `CC(C)C[C@H](NC(=O)[C@H](CCCNC(=N)N)NC(=O)[C@@H](NC(=O)[C@H](Cc1ccc(O)cc1)N(CC(C)C)C(=O)C(F)(F)F)C1CCCCC1)C(=O)N1CCC[C@H]1C(N)=O` [Tfa—(iBu)Y—Chg—R—L—P—NH2, Tfa-(iBu)Tyr-Chg-Arg-Leu-Pro-NH2] (Tfa-[X1][Chg]RLP-NH2), the half-life is 15 min in [3] and 10 min in series [4].
For the compound `CC(=O)N[C@@H](Cc1ccc(O)cc1)C(=O)N[C@H](C(=O)N[C@@H](CCCNC(=N)N)C(=O)N[C@@H](CC(C)C)C(=O)N1CCC[C@H]1C(N)=O)C1CCCCC1` [Ac—Y—Chg—R—L—P—NH2, Ac-Tyr-Chg-Arg-Leu-Pro-NH2] (Ac-Y[Chg]RLP-NH2), the half-life in series [3] and in [4] was 5 min in each case. It took 225 nM to reach a half-maximal effect in series [5] (EC50).
For `CC(=O)N[C@@H](Cc1ccc2ccccc2c1)C(=O)N[C@H](C(=O)N[C@@H](CCCNC(=N)N)C(=O)N[C@@H](CC(C)C)C(=O)N1CCC[C@H]1C(N)=O)C1CCCCC1` [Ac—Nal(2)—Chg—R—L—P—NH2, Ac-Nal(2)-Chg-Arg-Leu-Pro-NH2] (Ac-[2Nal][Chg]RLP-NH2), the half-life in [3] was 6 min; in series [4], 5 min. Moreover, the midpoint of the response in series [5], the EC50, lay at 140 nM.
“TAP: tick anticoagulant peptide, isolated from the tick Ornithodoros moubata, 60 amino acids (YNRLCIKPRDWIDECDSNEGGERAYFRNGKGGCDSFWICPEDHTGADYYSSYRDCFNACI; ends and bridges not checked; cysteine pairing not given here; UniProt P17726 1-60, looked up)”: the Ki on factor Xa was around 0.5 nM.
Consider “N-alpha-tosyl-Gly-p-amidinophenylalanine methyl ester [TENSTOP, reference compound]”, for which the Ki on human plasmin is above 200000 nM; at human thrombin it was 2000 nM; on factor Xa it was around 800 nM; in series [2], above 200000 nM; on human factor Xa (Table 2, read-out: Ki Xa), 2000 nM.
As to `CC(=O)N[C@@H](Cc1ccc(O)cc1)C(=O)N[C@H](C(=O)N[C@@H](CCCNC(=N)N)C(N)=O)C1CCCCC1` [Ac—Y—Chg—R—NH2] (Ac-Tyr-[Chg]-Arg-NH2), the half-life in series [3] and in series [4] was 5 min each time.
